Reference: paper PMC8478281, “Targeting the FtsZ Allosteric Binding Site with a Novel Fluorescence Polarization Screen, Cytological and Structural Approaches for Antibacterial Discovery” (Journal of Medicinal Chemistry, 2021)
≈ marks a conversion by molar mass, not a printed value.

Assays:
[1] = target: T1, stabilized polymers of FtsZ from B. subtilis (Bacillus subtilis, UniProt P17865); experiment: Competition assay: displacement of probe (R)-5 from stabilized BsFtsZ-GMPCPP polymers; format: binding; conditions: stabilized polymers of FtsZ from B. subtilis; probe (R)-5; mean ± SEM; read-out: KD
T1 construct: made in house
T1 sequence (P17865 whole entry): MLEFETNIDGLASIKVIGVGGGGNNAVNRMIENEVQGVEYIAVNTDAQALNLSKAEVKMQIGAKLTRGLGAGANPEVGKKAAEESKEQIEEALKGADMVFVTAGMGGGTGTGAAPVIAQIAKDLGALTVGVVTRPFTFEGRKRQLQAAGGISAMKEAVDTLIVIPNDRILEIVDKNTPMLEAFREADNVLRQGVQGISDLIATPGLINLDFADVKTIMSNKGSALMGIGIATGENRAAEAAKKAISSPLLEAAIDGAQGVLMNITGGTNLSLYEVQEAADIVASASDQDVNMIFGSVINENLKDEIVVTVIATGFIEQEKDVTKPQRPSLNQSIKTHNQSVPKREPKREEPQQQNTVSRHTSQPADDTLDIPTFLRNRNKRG

S. aureus Mu50 [2] = experiment: Minimal division inhibitory concentration, S. aureus Mu50; format: cell-based; conditions: Staphylococcus aureus, MU50, read-out: MDC S. aureus Mu50
Experimental: (§1) B. subtilis 168 and Staphylococcus spp. were grown in cation adjusted Mueller–Hinton broth (CAMHB; Becton, Dickinson and Company) at 37 °C. B. subtilis SU570 were grown in the same medium at 30 °C. In all cases, the cells were grown to an absorbance of 0.1–0.2 at 600 nm and then incubated either with the compounds or DMSO vehicle. Microscopy assays and cell measurement were performed as previously described.[31] MIC values were determined by a broth macrodilution method.[51] MBC values were determined as the lowest concentration of inhibitor at which there was a 99.9% reduction in colony-forming units/mL compared to the inoculum. To construct a S. aureus strain expressing FtsZ-mCherry, the plasmid pCN-ftsZmch[9] was electroporated into RN4220 and 0.1 μM cadmium chloride (Sigma-Aldrich) was used to induce the expression of the construct under the control of the Pcad promoter.

B. subtilis [3] = experiment: Minimal growth inhibitory concentration (broth macrodilution), B. subtilis; format: cell-based, Bacillus subtilis; conditions: Bacillus subtilis, read-out: MIC B. subtilis
Summary of the method: (§2)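 Strains grown in cation-adjusted Mueller–Hinton broth at 37 °C (B. subtilis SU570 at 30 °C) to A600 0.1–0.2, then exposed to compounds or DMSO. MIC by broth macrodilution; division phenotype assessed by microscopy and cell measurement.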

MTT cytotoxicity assay = format: cell-based; conditions: human, IMR90 lung fibroblast cells, relative to vehicle
Experimental: The sensitivity of the IMR90 cell line to compounds was tested through a standard 3-(4,5-dimethylthiazol-2-yl)-2,5-diphenyltetrazolium bromide (MTT) assay.[52] The results were reported as the viability percentage of the tested compound relative to vehicle (DMSO), obtained from two or three independent experiments performed in triplicate.

[4] = system: Staphylococcus haemolyticus; experiment: Minimal growth inhibitory concentration, S. haemolyticus; format: cell-based
Experimental: as §1

[5] = system: Staphylococcus epidermidis; experiment: Minimal growth inhibitory concentration, S. epidermidis; format: cell-based
Experimental: as §1

B. subtilis [6] = experiment: Minimal division inhibitory concentration and cell division phenotype, B. subtilis; format: cell-based, Bacillus subtilis; conditions: Bacillus subtilis, read-out: MDC B. subtilis
Summary of the method: as §2

S. aureus Mu50 [7] = experiment: Minimal growth inhibitory concentration (broth macrodilution), S. aureus Mu50; format: cell-based, Staphylococcus aureus; conditions: Staphylococcus aureus, MU50, read-out: MIC S. aureus Mu50
Summary of the method: as §2

[8] = system: S. aureus subsp. aureus (ATCC 25923); experiment: Minimal growth inhibitory concentration, S. aureus subsp. aureus; format: cell-based; conditions: Staphylococcus aureus, ATCC25923
Experimental: as §1

B. subtilis 168 = experiment: Cell length of B. subtilis 168 incubated with FtsZ inhibitors; format: cell-based, Bacillus subtilis; set-up: unit of the concentration uncertain; unit not given here; conditions: B. subtilis 168, 3 h, 1 (unit uncertain) as printed
Experimental: Figure 4 Fluorescence anisotropy screen for FtsZ allosteric inhibitors combined with cell-based methods. (A) Screen for FtsZ inhibitors employing the fluorescence anisotropy of probe (S)-2 (3 μM) and stabilized FtsZ-GMPCPP polymers (8 μM binding sites). […] Control values with the corresponding concentrations of dimethyl sulfoxide (DMSO) vehicle (2% void and gray circles; 4%, black circle) are also shown. […] Raw data plots (n ≥ 30) are shown with the mean values marked (statistics in Table S2). The cells were incubated for 3 h with each compound, and cell lengths were measured. (D) Representative phase-contrast images of cells after 3 h with 7 or 9 (0.75 mM each). (E) Cellular localization of FtsZ-GFP in B. subtilis SU570 following growth for 1.5 h in the absence (inset) and presence of 7 (0.2 mM). Bars, 10 μm.
as §1, with “MBC values were determined as the lowest concentration of inhibitor at which there was a 99.9% reduction in colony-forming units/mL compared to the inoculum.” left out, “promoter. […]” for “promoter.”

[9] = target: T2, stabilized SaFtsZ polymers (Staphylococcus aureus, UniProt P0A031); experiment: Competition assay with stabilized SaFtsZ polymers; format: binding; conditions: read-out: KD (in parenthesis) (converted)
T2 construct: Full-length S. aureus FtsZ (SaFtsZ); made in house
T2 sequence (P0A031 whole entry): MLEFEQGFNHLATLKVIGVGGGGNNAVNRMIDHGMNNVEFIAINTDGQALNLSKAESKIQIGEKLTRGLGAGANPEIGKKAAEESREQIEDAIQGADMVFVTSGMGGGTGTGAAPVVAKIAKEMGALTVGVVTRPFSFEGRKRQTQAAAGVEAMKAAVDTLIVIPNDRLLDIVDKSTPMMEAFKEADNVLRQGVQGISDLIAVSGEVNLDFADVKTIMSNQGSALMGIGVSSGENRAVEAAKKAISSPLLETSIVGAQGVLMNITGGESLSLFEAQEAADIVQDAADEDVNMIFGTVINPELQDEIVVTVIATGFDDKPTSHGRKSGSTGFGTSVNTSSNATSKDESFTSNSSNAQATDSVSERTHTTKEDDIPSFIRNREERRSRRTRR
Experimental: Full-length S. aureus FtsZ (SaFtsZ) and the truncated protein SaFtsZ(12–315) were purified as described.[34] SaFtsZ was assembled in 50 mM MES, 50 mM KCl, 1 mM EDTA, pH 6.5 plus 10 mM MgCl2, and 0.1 mM GMPCPP.
(§3) FtsZ (10–15 μM) was assembled in HEPES buffer, 10 mM MgCl2, 50 μM GMPCPP at 25 °C for 10 min, and then 0.15% (v/v) glutaraldehyde[36] (distilled grade for microscopy, TAAB Laboratories, U.K.) was added to the solution that was incubated at 25 °C for 10 min more. (This was the minimal glutaraldehyde concentration determined to stabilize FtsZ polymers specifically binding probe 1.) The remains of the cross-linking agent were quenched by adding 60 mM NaBH4, the sample was incubated on ice for 10 min and degassed.[36] Cross-linked polymers were centrifuged for 10 min at 8200g (5000 rpm) and 4 °C in 15 mL Falcon tubes employing a Rotina 380R (Hettich) centrifuge, the supernatant was removed and the pellet was resuspended in the same volume of HEPES buffer, 10 mM MgCl2, containing 5 μM GMPCPP. Fixed FtsZ polymers were active in binding assays after more than 2 days at 4 °C; they could also be frozen in liquid nitrogen with a small loss of binding capacity. […] Cross-linked polymers of SaFtsZ were similarly prepared.
Competition assays were performed by measuring, through the decrease in fluorescence anisotropy, the displacement of the fluorescent probes from stabilized FtsZ polymers. Increasing concentrations of competing ligands were added to the mixtures of cross-linked FtsZ polymers (10–15 μM) with probe 1 (3 μM), 7–8 μM FtsZ polymers with probe (S)-2 (3 μM), or 2–3 μM FtsZ polymers with (R)-5 (3 μM). HEPES buffer with 10 mM MgCl2 and 0.1 mM GMPCPP was employed, with a final volume of 0.5 mL, and the anisotropy measured at 25 °C. Under these conditions, the initial fraction of the probe bound was between 0.4 and 0.5. The fraction of the probe bound (Vb) was calculated [drawing 1] where rfree and rmax are the anisotropy values of the free and bound probes, respectively, and R is the ratio between the fluorescence intensities of the bound and free probe (Table S1). The binding data were plotted against the competing ligand concentration and fitted by competition equilibrium of the ligand and the probe for the same binding site. The resulting system of equations[50] was numerically solved using the Equigra v. 5.0 program,[33] which provided the best-fitted value of the competitor binding constant.

S. aureus = experiment: Minimal bactericidal concentration; format: cell-based; conditions: Staphylococcus aureus; 99.9% reduction in colony-forming units/mL
Experimental: as §1

[10] = Solubility in HEPES buffer with 2% DMSO, spectrophotometric; format: physicochemical; conditions: HEPES buffer containing 2% DMSO, 25 °C, aqueous buffer, kinetic from dmso stock; HEPES buffer pH 6.8 containing 2% DMSO
[11] = target: T3, FtsZ-GMPCPP polymers (BsFtsZ) (Bacillus subtilis, UniProt P17865); experiment: Binding titration of the fluorescent probes to FtsZ polymers by fluorescence anisotropy
T3 construct: made in house
T3 sequence (P17865 whole entry): as the sequence (P17865 whole entry) above
Experimental: (§4) FtsZ from B. subtilis (BsFtsZ) was prepared as described previously.[35] FtsZ was assembled in 50 mM N-(2-hydroxyethyl)piperazine-N′-ethanesulfonic acid (HEPES)-KOH, 50 mM KCl, 1 mM ethylenediaminetetraacetic acid (EDTA), pH 6.8 (HEPES buffer) plus 10 mM MgCl2, and 1 mM GTP or 0.1 mM GMPCPP at 25 °C. FtsZ assembly was monitored by light scattering.[34]
The fluorescence spectra and anisotropy values of the different probes were acquired with a Fluoromax-4 (Horiba Jobin Yvon) photon-counting L-format spectrofluorometer using 2 mm × 10 mm cells at 25 °C, employing the maximum excitation and emission wavelength for each probe with 2 and 5 nm bandwidths, respectively. Anisotropy values were automatically measured as r = (Ivv – G Ivh)/(Ivv + 2G Ivh), where the subscripts refer to the vertical (v) or horizontal (h) positions of the excitation (first subscript) and emission (second subscript) polarizers, and G = Ihv/Ihh. Total intensity values were simultaneously determined as IT = Ivv +2G Ivh. Note that measurement correction procedures with T-format (double channel) fluorometers and with plate readers are slightly different.
as §3
Binding affinity of the probes to FtsZ was measured by an increase in anisotropy of the probe (adapted from ref ([49])). Fixed concentrations of the probes (3 μM) were titrated with different FtsZ polymer concentrations (0–40 μM) in HEPES buffer with Mg^2+, to obtain the anisotropy increment, Δrmax, corresponding to the bound probe. The increase in anisotropy was plotted against the FtsZ polymer concentration (calculated by subtracting from the total protein concentration the critical concentration for polymerization under the same conditions) and iteratively least-squares fitted with an isotherm of binding to one site. The estimated values of Δrmax were used to approximate the free FtsZ concentrations, and these new values were employed again until an unchanging Δrmax value was obtained. The convergent data were used to calculate the binding constant of the fluorescent probe to FtsZ polymers (Table S1).

B. subtilis [12] = system: B. subtilis; set-up: method as in earlier work; conditions: Table S1; ref 1 (Artola et al., Chem. Sci. 2017); cited from earlier work
BsFtsZ = target: T4, BsFtsZ (Bacillus subtilis, UniProt P17865); experiment: Fluorescence anisotropy of probes after consecutive additions of FtsZ, GMPCPP, MgCl2 and PC190723; format: binding
T4 construct: made in house
T4 sequence (P17865 whole entry): as above
Experimental: (A) Fluorescence anisotropy values of the free probes (10 μM) in buffer, to which FtsZ (10 μM, unassembled) was added, followed by the slowly hydrolyzable GTP analogue GMPCPP (0.1 mM). BsFtsZ polymerization was then induced by the addition of MgCl2 (10 mM) and anisotropy values were recorded 5–10 min later. Nonfluorescent PC190723 (10 μM) was subsequently added to displace the fluorescent probe and anisotropy was measured 5 min later. (B) Fluorescence microscopy images of B. subtilis cells treated for 1.5 h with the minimal division inhibitory concentrations (MDC) of (S)-2 and each enantiomer of 5 (Table S1), acquired employing the probe fluorescence.
as §4

[13] = FtsZ-GMPCPP polymers, best fit values from binding titrations
[14] = binding to stabilized FtsZ polymers

SMILES: CCC[C@H](COc1ccc(F)c(C(N)=O)c1F)Nc1cccc(C(F)(F)F)c1 [(R)-26]
- Kd [1]: 200 ± 100 nM
- minimal effective concentration (S. aureus Mu50 [2]): 10 µM
- MIC (B. subtilis [3]): 2.5 µM (≈ 1.01 µg/mL)
- viability at 25 µM (MTT cytotoxicity assay; IMR90, 25 µM): 100 ± 1%
- MIC [4]: 25 µM (≈ 10.1 µg/mL)
- MIC [5]: 25 µM (≈ 10.1 µg/mL)
- minimal effective concentration (B. subtilis [6]): 1 µM
- MIC (S. aureus Mu50 [7]): 25 µM (≈ 10.1 µg/mL)
- MIC [8]: 25 µM (≈ 10.1 µg/mL)
- length (B. subtilis 168): 17.6 ±0.8
- Kd [9]: < 100 nM
- MBC (S. aureus): 25 µM (≈ 10.1 µg/mL)
- solubility [10]: 100 µM (≈ 40.2 µg/mL)

SMILES: NC(=O)c1c(F)ccc(OCc2cccc(C(F)(F)F)c2)c1F [Compound 20, 2,6-Difluoro-3-{[3-(trifluoromethyl)benzyl]oxy}benzamide]
- Kd [1]: 700 ± 200 nM
- minimal effective concentration (S. aureus Mu50 [2]): 50 µM
- MIC (B. subtilis [3]): 25 µM (≈ 8.28 µg/mL)
- viability at 50 µM (MTT cytotoxicity assay; IMR90, 50 µM): 84 ± 5%
- MIC [4]: 25 µM (≈ 8.28 µg/mL)
- MIC [5]: 25 µM (≈ 8.28 µg/mL)
- minimal effective concentration (B. subtilis [6]): 10 µM
- MIC (S. aureus Mu50 [7]): 50 µM (≈ 16.6 µg/mL)
- MIC [8]: 25 µM (≈ 8.28 µg/mL)
- Kd [9]: 700 ± 200 nM
- MBC (S. aureus): 100 µM (≈ 33.1 µg/mL)
- solubility [10]: 50 µM (≈ 16.6 µg/mL)

SMILES: NC(=O)c1c(F)ccc(OCCNc2ccc([N+](=O)[O-])c3nonc23)c1F [Compound 1, reference compound]
- Imax/Imin [11, 13]: 1.0
- rmax (all probe bound) [11, 13]: 0.213
- rmin (free probe) [11, 13]: 0.024
- Kd [11, 13]: 26 ± 3 µM
- Kd [11, 14]: 17 ± 1 µM
- Imax/Imin [11, 14]: 1.0
- rmax (all probe bound) [11, 14]: 0.26
- rmin (free probe) [11, 14]: 0.024
- MIC B. subtilis (B. subtilis [12]): 800 µM (≈ 303 µg/mL)
- Fluorescence anisotropy (r): + PC190723 (BsFtsZ; PC190723 10 μM added to the polymer, 5 min): 0.029
- Fluorescence anisotropy (r): free probe (BsFtsZ; probe 10 μM in buffer): 0.022
- Fluorescence anisotropy (r): + FtsZ (unassbld.) (BsFtsZ; probe 10 μM, FtsZ 10 μM): 0.027
- Fluorescence anisotropy (r): + GMPCPP (BsFtsZ; probe 10 μM, FtsZ 10 μM, GMPCPP 0.1 mM): 0.026
- Fluorescence anisotropy (r): + MgCl2 (polymer) (BsFtsZ; probe 10 μM, FtsZ 10 μM, GMPCPP 0.1 mM, MgCl2 10 mM, 5–10 min): 0.080

SMILES: CCCC(COc1ccc(F)c(C(N)=O)c1F)Nc1cccc(C(F)(F)F)c1 (racemic) [rac-26, 2,6-Difluoro-3-[(2-{[3-(trifluoromethyl)phenyl]amino}pentyl)oxy]benzamide]
- Kd [1]: 1100 ± 100 nM
- minimal effective concentration (S. aureus Mu50 [2]): 25 µM
- MIC (B. subtilis [3]): 5 µM (≈ 2.01 µg/mL)
- MIC [4]: 50 µM (≈ 20.1 µg/mL)
- MIC [5]: 50 µM (≈ 20.1 µg/mL)
- minimal effective concentration (B. subtilis [6]): 2.5 µM
- MIC (S. aureus Mu50 [7]): 50 µM (≈ 20.1 µg/mL)
- MIC [8]: 100 µM (≈ 40.2 µg/mL)
- solubility [10]: 50 µM (≈ 20.1 µg/mL)
